In ChEMBL document CHEMBL3745631, “Discovery of highly potent and selective Bruton's tyrosine kinase inhibitors: Pyridazinone analogs with improved metabolic stability” (Bioorg Med Chem Lett, 2016):

Tests used:
[1] = target: Tyrosine-protein kinase Tec (Homo sapiens, UniProt P42680); assay: Inhibition of TEC (unknown origin)
[2] = target: Interleukin-1 receptor-associated kinase 4 (Homo sapiens) (UniProt Q9NWZ3); assay: Inhibition of IRAK4 (unknown origin) at 1 uM
[3] = target: Tyrosine-protein kinase Fyn (Homo sapiens) (UniProt P06241); assay: Inhibition of Fyn (unknown origin) at 1 uM
Tyrosine-protein kinase Fyn (Homo sapiens), sequence (P06241 2-537 limits assumed): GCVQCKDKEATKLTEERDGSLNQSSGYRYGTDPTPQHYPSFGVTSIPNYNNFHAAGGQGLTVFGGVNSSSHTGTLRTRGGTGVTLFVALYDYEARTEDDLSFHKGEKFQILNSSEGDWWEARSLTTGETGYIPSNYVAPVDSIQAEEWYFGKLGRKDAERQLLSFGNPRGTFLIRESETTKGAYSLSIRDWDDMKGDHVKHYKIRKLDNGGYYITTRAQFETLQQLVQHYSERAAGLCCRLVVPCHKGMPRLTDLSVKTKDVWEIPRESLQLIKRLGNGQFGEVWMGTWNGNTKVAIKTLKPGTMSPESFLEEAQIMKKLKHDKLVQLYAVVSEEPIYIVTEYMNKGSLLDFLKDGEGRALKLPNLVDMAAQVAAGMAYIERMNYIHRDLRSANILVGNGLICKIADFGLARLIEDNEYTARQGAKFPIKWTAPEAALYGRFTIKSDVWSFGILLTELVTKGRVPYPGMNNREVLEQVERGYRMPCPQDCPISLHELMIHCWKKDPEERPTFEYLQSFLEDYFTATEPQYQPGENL

[4] = target: Ribosomal protein S6 kinase beta-1 (Homo sapiens) (UniProt P23443); assay: Inhibition of p70S6K (unknown origin) at 1 uM
Ribosomal protein S6 kinase beta-1 (Homo sapiens), sequence (P23443 whole entry, looked up): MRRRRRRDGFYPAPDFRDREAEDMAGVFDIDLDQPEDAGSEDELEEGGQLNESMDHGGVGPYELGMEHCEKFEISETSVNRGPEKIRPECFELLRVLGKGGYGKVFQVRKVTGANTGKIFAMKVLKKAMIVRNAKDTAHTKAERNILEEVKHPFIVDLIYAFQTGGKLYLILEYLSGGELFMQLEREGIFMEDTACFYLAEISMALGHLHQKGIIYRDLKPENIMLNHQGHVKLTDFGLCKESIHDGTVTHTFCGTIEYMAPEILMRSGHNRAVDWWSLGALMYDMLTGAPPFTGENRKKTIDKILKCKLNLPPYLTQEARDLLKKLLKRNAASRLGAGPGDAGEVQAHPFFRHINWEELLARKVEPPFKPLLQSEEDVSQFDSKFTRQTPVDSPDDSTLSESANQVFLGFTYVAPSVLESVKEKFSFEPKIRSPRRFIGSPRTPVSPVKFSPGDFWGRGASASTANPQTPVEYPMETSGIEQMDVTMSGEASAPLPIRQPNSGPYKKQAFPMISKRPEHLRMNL

[5] = target: Protein-tyrosine kinase 6 (Homo sapiens) (UniProt Q13882); assay: Inhibition of Brk (unknown origin) at 1 uM
Protein-tyrosine kinase 6 (Homo sapiens), sequence (Q13882 whole entry, looked up, canonical isoform): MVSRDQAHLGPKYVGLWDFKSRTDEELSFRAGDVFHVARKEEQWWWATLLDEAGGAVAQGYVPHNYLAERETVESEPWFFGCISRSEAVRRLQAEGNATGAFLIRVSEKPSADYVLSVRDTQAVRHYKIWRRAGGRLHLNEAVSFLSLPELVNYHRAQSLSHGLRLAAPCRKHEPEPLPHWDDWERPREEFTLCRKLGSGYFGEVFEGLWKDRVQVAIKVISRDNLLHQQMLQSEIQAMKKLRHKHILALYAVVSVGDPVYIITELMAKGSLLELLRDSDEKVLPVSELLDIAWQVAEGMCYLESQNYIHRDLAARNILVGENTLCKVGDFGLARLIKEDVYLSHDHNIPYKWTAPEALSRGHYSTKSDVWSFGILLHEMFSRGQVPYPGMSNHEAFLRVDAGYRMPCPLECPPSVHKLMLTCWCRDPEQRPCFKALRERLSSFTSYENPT

[6] = target: Casein kinase I isoform delta (Homo sapiens) (UniProt P48730); assay: Inhibition of CK1 delta (unknown origin) at 1 uM
Casein kinase I isoform delta (Homo sapiens), sequence (P48730 whole entry, looked up, canonical isoform): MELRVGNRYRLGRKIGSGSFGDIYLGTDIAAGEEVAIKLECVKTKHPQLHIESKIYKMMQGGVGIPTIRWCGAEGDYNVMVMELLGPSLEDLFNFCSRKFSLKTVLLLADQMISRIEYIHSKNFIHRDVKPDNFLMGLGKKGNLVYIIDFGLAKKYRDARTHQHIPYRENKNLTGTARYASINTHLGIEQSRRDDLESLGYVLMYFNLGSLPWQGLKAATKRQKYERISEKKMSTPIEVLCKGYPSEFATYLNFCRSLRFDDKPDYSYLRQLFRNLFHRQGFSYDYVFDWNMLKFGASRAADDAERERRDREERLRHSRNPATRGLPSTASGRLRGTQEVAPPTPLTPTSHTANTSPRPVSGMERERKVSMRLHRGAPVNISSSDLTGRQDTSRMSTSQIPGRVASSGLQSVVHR

[7] = target: Mitogen-activated protein kinase kinase kinase kinase 4 (Homo sapiens) (UniProt O95819); assay: Inhibition of MAP4K4 (unknown origin) at 1 uM
[8] = target: Serine/threonine-protein kinase 26 (Homo sapiens) (UniProt Q9P289); assay: Inhibition of MST4 (unknown origin) at 1 uM
Serine/threonine-protein kinase 26 (Homo sapiens), sequence (Q9P289 2-416 limits assumed): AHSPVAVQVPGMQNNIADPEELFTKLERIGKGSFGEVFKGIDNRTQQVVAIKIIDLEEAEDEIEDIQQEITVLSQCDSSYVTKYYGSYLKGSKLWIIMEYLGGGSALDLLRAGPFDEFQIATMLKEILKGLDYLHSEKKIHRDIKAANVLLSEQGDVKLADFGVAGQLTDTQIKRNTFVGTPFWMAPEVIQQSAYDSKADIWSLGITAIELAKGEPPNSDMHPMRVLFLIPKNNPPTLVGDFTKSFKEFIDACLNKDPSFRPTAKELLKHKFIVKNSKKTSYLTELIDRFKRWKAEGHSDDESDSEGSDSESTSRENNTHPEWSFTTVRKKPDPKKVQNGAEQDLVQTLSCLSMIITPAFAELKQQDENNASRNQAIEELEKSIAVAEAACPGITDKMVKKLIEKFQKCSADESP

[9] = target: Serine/threonine-protein kinase 16 (Homo sapiens) (UniProt O75716); assay: Inhibition of STK16 (unknown origin) at 1 uM
[10] = target: Tyrosine-protein kinase Fes/Fps (Homo sapiens) (UniProt P07332); assay: Inhibition of Fes (unknown origin) at 1 uM
Tyrosine-protein kinase Fes/Fps (Homo sapiens), sequence (P07332 whole entry): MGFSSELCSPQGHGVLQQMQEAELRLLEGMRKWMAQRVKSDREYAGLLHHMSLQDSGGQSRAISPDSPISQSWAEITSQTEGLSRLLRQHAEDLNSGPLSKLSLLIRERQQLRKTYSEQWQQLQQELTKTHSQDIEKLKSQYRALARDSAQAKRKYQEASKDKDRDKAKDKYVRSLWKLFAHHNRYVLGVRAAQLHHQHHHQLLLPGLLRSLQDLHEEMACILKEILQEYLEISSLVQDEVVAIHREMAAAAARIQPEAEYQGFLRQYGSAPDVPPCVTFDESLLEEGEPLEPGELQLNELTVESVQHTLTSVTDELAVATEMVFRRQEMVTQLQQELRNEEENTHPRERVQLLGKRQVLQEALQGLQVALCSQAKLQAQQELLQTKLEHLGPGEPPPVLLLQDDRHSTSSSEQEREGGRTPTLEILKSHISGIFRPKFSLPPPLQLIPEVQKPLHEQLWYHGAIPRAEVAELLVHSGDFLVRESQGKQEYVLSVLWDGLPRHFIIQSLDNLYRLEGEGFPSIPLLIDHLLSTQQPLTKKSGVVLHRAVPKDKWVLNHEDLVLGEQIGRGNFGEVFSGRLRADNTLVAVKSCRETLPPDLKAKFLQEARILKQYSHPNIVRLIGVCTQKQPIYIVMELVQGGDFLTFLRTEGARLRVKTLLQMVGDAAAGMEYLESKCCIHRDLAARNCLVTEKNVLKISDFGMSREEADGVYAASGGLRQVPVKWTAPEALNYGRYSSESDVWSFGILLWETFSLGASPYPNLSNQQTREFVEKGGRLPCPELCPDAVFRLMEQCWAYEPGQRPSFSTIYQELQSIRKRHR

[11] = target: Tyrosine-protein kinase TXK (Homo sapiens) (UniProt P42681); assay: Inhibition of TXK (unknown origin) at 1 uM
Tyrosine-protein kinase TXK (Homo sapiens), sequence (P42681 whole entry): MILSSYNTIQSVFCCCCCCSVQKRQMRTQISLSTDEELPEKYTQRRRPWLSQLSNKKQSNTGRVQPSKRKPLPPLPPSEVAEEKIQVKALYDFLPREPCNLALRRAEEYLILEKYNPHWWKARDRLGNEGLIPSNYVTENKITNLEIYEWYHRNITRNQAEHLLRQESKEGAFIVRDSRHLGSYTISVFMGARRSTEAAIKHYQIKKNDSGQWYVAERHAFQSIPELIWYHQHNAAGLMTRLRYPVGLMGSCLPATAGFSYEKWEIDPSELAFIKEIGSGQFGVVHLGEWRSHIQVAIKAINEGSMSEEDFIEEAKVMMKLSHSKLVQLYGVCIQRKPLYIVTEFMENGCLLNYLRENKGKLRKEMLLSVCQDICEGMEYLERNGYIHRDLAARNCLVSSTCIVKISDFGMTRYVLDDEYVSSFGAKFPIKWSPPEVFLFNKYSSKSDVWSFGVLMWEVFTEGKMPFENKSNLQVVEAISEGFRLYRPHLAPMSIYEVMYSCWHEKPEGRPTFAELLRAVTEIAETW

Tyrosine-protein kinase Tec, sequence (P42680 whole entry): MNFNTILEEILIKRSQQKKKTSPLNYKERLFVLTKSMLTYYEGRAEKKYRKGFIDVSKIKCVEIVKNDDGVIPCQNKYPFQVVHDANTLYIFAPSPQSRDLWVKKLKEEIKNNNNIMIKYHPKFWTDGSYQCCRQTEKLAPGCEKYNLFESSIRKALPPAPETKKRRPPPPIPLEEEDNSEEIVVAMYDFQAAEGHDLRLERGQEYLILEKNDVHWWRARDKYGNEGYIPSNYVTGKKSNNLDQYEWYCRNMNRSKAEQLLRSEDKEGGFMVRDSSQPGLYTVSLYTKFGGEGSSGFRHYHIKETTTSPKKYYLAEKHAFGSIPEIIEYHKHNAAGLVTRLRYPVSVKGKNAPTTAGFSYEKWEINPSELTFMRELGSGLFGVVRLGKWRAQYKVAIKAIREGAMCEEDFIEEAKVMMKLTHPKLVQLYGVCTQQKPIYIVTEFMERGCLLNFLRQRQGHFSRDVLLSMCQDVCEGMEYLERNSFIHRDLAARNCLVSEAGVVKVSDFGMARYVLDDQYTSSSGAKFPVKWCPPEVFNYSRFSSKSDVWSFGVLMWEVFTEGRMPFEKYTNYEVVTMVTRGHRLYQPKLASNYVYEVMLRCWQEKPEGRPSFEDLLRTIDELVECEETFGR
Interleukin-1 receptor-associated kinase 4 (Homo sapiens), sequence (Q9NWZ3 whole entry): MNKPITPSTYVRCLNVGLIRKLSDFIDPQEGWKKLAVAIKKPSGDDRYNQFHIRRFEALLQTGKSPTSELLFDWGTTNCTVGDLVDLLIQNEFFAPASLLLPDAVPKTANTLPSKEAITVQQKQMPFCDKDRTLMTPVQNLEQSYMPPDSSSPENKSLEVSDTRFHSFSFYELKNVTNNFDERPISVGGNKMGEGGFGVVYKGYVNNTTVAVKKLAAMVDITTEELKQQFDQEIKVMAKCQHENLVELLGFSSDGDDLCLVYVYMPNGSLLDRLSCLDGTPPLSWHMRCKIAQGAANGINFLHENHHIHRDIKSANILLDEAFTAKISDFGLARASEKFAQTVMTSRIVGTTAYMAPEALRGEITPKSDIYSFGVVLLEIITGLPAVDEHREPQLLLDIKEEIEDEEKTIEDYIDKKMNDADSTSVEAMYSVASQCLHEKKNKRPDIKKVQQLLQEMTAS

Compound: Cc1c(-c2cc(Nc3cc4n(n3)CCN(C)C4)c(=O)[nH]n2)ccc(F)c1NC(=O)c1cc2ccccc2s1
- IC50 [1]: 230 nM
- inhibition [2]: 2%
- inhibition [3]: 7%
- inhibition [4]: -2.8%
- inhibition [5]: 3.5%
- inhibition [6]: 4.7%
- inhibition [7]: 3%
- inhibition [8]: 8.6%
- inhibition [9]: 11%
- inhibition [10]: 7.2%
- inhibition [11]: -4.7%
